Assays:
[1] = Encapsulation Rate of luciferase mRNA in lipid nanoparticles (Quant-it Ribogreen RNA kit); format: physicochemical; conditions: luciferase mRNA in lipid nanoparticles prepared from the compound
Procedure: (§1) Luciferase mRNA was diluted in a 10-100 mM sodium citrate buffer solution at pH 4.0, with the concentration of the mRNA solution being 135 µg/ml. A mixed lipid ethanol solution was prepared at a molar ratio of ionizable cationic lipid compound (each exemplary compound) : DSPC: cholesterol : 2-[(polyethylene glycol)-2000]-N,N-ditetradecylacetamide (ALC-0159) of 50:10:38.5:1.5. The mRNA solution and the mixed lipid solution were mixed at a volume ratio of 3:1 in a nanodrug preparation device, followed by ultrafiltration to obtain luciferase mRNA lipid nanoparticles.
(§2) • 1. Determination of particle size and polydispersity index (PDI): The average particle size and PDI of the nanoparticle sample solutions in the examples were determined by dynamic light scattering using Malvern ZetaSizer Nano ZS90. The measurement angle was 90°, the refractive index of the dispersant was 1.330, and the test temperature was 25°C. • 2. Zeta potential: The Zeta potential of the nanoparticle sample solutions in the examples was determined by electrophoretic light scattering (ELS) using Malvern ZetaSizer Nano ZS90. Refractive index of the dispersant: 1.330, Test temperature: 25°C. • 3. Encapsulation Rate: The Encapsulation Rate of luciferase mRNA in lipid nanoparticles was determined using a Quant-it Ribogreen RNA quantitation kit (ThermoFisher Scientific, UK) in accordance with the manufacturer's instructions.

[2] = Particle size and polydispersity index (PDI) by dynamic light scattering; format: physicochemical; conditions: luciferase mRNA lipid nanoparticles prepared from the compound; 25°C
Procedure: as §1, §2

[3] = Zeta potential by electrophoretic light scattering; format: physicochemical; conditions: luciferase mRNA lipid nanoparticles prepared from the compound; 25°C
Procedure: as §1, §2

HEK 293T cells = assay: In vitro transfection efficiency of luciferase mRNA lipid nanoparticles (luciferase activity); format: cell-based; conditions: 100 ng dose, 96-well plate, 24 h incubation; luciferase mRNA lipid nanoparticles
Procedure: as §1
HEK-293T cells were used to evaluate the in vitro transfection efficiency of lipid nanoparticle compositions prepared from each exemplary compound. HEK293T cells were routinely cultured in DMEM + 10% FBS medium to ensure the cells were in the logarithmic growth phase. One day before transfection, the cells were seeded into a 96-well culture plate at an appropriate cell density and grown overnight. At the time of transfection, the cell confluency needed to reach 70-90%. The lipid nanoparticle compositions prepared from each exemplary compound were diluted into 4 different dose concentrations with DMEM and added to the 96-well cell culture plate, resulting in final concentrations of 400 ng, 200 ng, 100 ng and 50 ng per well, respectively. luciferase plasmid transfected using Lipofectamine 2000 was used as the positive control (PC). After incubation for 24 h in a 5% CO2 incubator at 37°C, the substrate was added to the wells, and the luciferase activity was determined using a microplate reader. […] The luciferase activity of the luciferase mRNA lipid nanoparticles prepared from Compound 1005 in HEK293T cells is shown in Fig. 1.

female Balb/c mice = assay: In vivo transfection efficiency and safety of luciferase mRNA lipid nanoparticles (whole-body live imaging); conditions: tail vein injection, single dose 0.3 mpk, 6 h after administration
Procedure: as §1
6-8 week-old female Balb/c mice were used to evaluate the in vivo transfection efficiency and safety of lipid nanoparticle compositions prepared from each exemplary compound. The lipid nanoparticles prepared from each exemplary compound were administered by tail vein injection at a single dose of 0.3 mpk. At specific time points after administration (e.g., 3 h, 6 h), live imaging of the animals was performed using a PerkinElmer small animal imaging system to determine the bioluminescent signal. The whole-body live imaging of mice at 3 h/6 h after intravenous administration of luciferase mRNA lipid nanoparticles prepared from Compound 1008 is shown in Fig. 2. […] Table 3 Summary of in vitro/in vivo Activity Evaluation of Lipid Nanoparticles Prepared from Compounds

[4] = Apparent pKa of blank lipid nanoparticles by TNS fluorescence; format: physicochemical; conditions: compound:DSPC:cholesterol:ALC-0159 50:10:38.5:1.5, pH 2 to 11
Procedure: The apparent pKa of lipid nanoparticles is correlated with the efficacy of lipid nanoparticles in delivering nucleic acids (see Jayaraman et al., Angewandte Chemie, International Edition (2012), 51(34), 8529-8533; Semple et al., Nature Biotechnology 28, 172-176 (2010)). The apparent pKa of nanoparticles prepared from different lipid compounds was determined using fluorescence based on 2-(p-toluidino)-6-naphthalenesulfonic acid (TNS). The fluorescent probe has no fluorescence in water but […] emits fluorescence when bound to lipid membranes. Blank lipid nanoparticles were prepared at a molar ratio of ionizable cationic lipid compound (each exemplary compound) : DSPC : cholesterol : 2-[(polyethylene glycol)-2000]-N,N-ditetradecylacetamide (ALC-0159) of 50:10:38.5:1.5. They were diluted in different pH buffer solutions having a pH ranging from 2 to 11. An aqueous TNS solution was added and mixed. Then, the mixtures were added to a 96-well plate (black bottom), respectively. Detection was performed with excitation wavelength at 325 nm and the emission wavelength at 435 nm, with top detection. Measurement was performed 10 times for each well, and the fluorescence intensity was recorded. A pH-fluorescence intensity curve was plotted to determine the apparent pKa.

Structure (SMILES)	Encapsulation Rate [1]	Particle Size [2]	Polydispersity Index (PDI) [2]	Zeta Potential [3]	HEK 293T Cell Luciferase Activity (HEK 293T cells)	Mouse Whole-Body Average Fluorescence Signal (female Balb/c mice)	Apparent pKa [4]
CCCCCCCCCC(CCCCCCCC)C(=O)OCC(COC(=O)C(CCCCCCCC)CCCCCCCCC)(COC(=O)C(CCCCCCCC)CCCCCCCCC)NCCC(=O)NCCN(C)CCn1cnc2c(N)ncnc21 (stereo not drawn) [Compound 1139]	91.1%	74.13 nm	0.064	-7.8 mV	4.23×10^5 RLU	3.87×10^5 p/s/cm^2/sr	
CCCCCCCCCC(CCCCCCCC)C(=O)OCC(COC(=O)C(CCCCCCCC)CCCCCCCCC)(COC(=O)C(CCCCCCCC)CCCCCCCCC)NCCC(=O)NCCN(C)CCCCO (stereo not drawn) [Compound 1118]	95.9%	108.1 nm	0.051	-3.96 mV	1.48×10^4 RLU	1.77×10^8 p/s/cm^2/sr	5.11
CCCCCCCCCCCCCCCC(CC)C(=O)OCC(COC(=O)C(CC)CCCCCCCCCCCCCCC)(COC(=O)C(CC)CCCCCCCCCCCCCCC)NCCC(=O)OCCN(C)C (stereo not drawn) [Compound 1029]	90.6%	77.94 nm	0.057	-3.71 mV	8.23×10^4 RLU	3.27×10^4 p/s/cm^2/sr	5.41
CCCCCCCCCCCCCCCC(CC)C(=O)OCC(COC(=O)C(CC)CCCCCCCCCCCCCCC)(COC(=O)C(CC)CCCCCCCCCCCCCCC)NCCC(=O)NCCN(CCC)CCC (stereo not drawn) [Compound 1012]	87.4%	80.07 nm	0.051	0.811 mV	6.61×10^5 RLU	2.02×10^5 p/s/cm^2/sr	6.05
CCCCCCCCCC(CCCCCCCC)C(=O)OCC(COC(=O)C(CCCCCCCC)CCCCCCCCC)(COC(=O)C(CCCCCCCC)CCCCCCCCC)NCCN(C)CCCCO (racemic) [Compound 3425]	89.4%	82.37 nm	0.021	-21.2 mV	6.86×10^6 RLU	1.56×10^7 p/s/cm^2/sr	
CCCCCCCCCC(CCCCCCCC)C(=O)OCC(COC(=O)C(CCCCCCCC)CCCCCCCCC)(COC(=O)C(CCCCCCCC)CCCCCCCCC)NCCC(=O)NCCN1CCNCC1 (stereo not drawn) [Compound 1111]	83.2%	110.3 nm	0.103	-0.902 mV	3.29×10^4 RLU	3.10×10^5 p/s/cm^2/sr	
CCCCCCCCCCCCCCCC(CC)C(=O)OCC(COC(=O)C(CC)CCCCCCCCCCCCCCC)(COC(=O)C(CC)CCCCCCCCCCCCCCC)NCCN(C)CCCCO (stereo not drawn) [Compound 3424]	88.9%	94.71 nm	0.115	-0.327 mV	1.81×10^4 RLU	9.34×10^4 p/s/cm^2/sr	
CCCCCCCCCCCCCCCC(CC)C(=O)OCC(COC(=O)C(CC)CCCCCCCCCCCCCCC)(COC(=O)C(CC)CCCCCCCCCCCCCCC)NC(=O)CN (stereo not drawn) [Compound 1003]	95.4%	62.59 nm	0.127	-3.64 mV			
CCCCCCCCCCCCCCCC(CC)C(=O)OCC(COC(=O)C(CC)CCCCCCCCCCCCCCC)(COC(=O)C(CC)CCCCCCCCCCCCCCC)NCCC(=O)NCCN(CCCO)CCCO (stereo not drawn) [Compound 1015]	80.3%	102.3 nm	0.136	4.27 mV	6.27×10^7 RLU	1.43×10^4 p/s/cm^2/sr	
CCCCCCCCCC(CCCCCCCC)C(=O)OCC(COC(=O)C(CCCCCCCC)CCCCCCCCC)(COC(=O)C(CCCCCCCC)CCCCCCCCC)NC(=O)CNCCN(C)CCCCO (stereo not drawn) [Compound 3423]	96.0%	87.5 nm	0.086	-18.6 mV	3.97×10^5 RLU	5.53×10^5 p/s/cm^2/sr	
CCCCCCCCCCCCCCCC(CC)C(=O)OCC(COC(=O)C(CC)CCCCCCCCCCCCCCC)(COC(=O)C(CC)CCCCCCCCCCCCCCC)NCCCCCCN(C)CCCCO (stereo not drawn) [Compound 3426]	95.5%	85.51 nm	0.104	2.23 mV	3.01×10^5 RLU	5.67×10^6 p/s/cm^2/sr	
CCCCCCCCCCCCCCCC(CC)C(=O)OCC(COC(=O)C(CC)CCCCCCCCCCCCCCC)(COC(=O)C(CC)CCCCCCCCCCCCCCC)NCCC(=O)NCCN(C)CCNC(=N)N (stereo not drawn) [Compound 1140]	92.4%	63.21 nm	0.127	4.39 mV	2.13×10^4 RLU	6.21×10^4 p/s/cm^2/sr	
CCCCCCCCCCCCCCCC(CC)C(=O)OCC(COC(=O)C(CC)CCCCCCCCCCCCCCC)(COC(=O)C(CC)CCCCCCCCCCCCCCC)NCCC(=O)NCCN(C)CCO (stereo not drawn) [Compound 1025]	64.5%	77.74 nm	0.072	2.84 mV		4.20×10^5 p/s/cm^2/sr	
CCCCCCCCCCCCCCCC(CC)C(=O)OCC(COC(=O)C(CC)CCCCCCCCCCCCCCC)(COC(=O)C(CC)CCCCCCCCCCCCCCC)NCCC(=O)NCCN(CCO)CCO (racemic) [Compound 1014]	70.3%	85.4 nm	0.111	3.06 mV	2.86×10^6 RLU	3.55×10^4 p/s/cm^2/sr	
CCCCCCCCCCCCCCCC(CC)C(=O)OCC(COC(=O)C(CC)CCCCCCCCCCCCCCC)(COC(=O)C(CC)CCCCCCCCCCCCCCC)NC(=O)CNCCN(C)CCCCO (stereo not drawn) [Compound 3427]	96.1%	70.81 nm	0.126	3.8 mV	5.18×10^5 RLU	8.24×10^6 p/s/cm^2/sr	
CCCCCCCCCC(CCCCCCCC)C(=O)OCC(COC(=O)C(CCCCCCCC)CCCCCCCCC)(COC(=O)C(CCCCCCCC)CCCCCCCCC)NCCCCN(C)CCCCO (stereo not drawn) [Compound 3428]	96.6%	83.84 nm	0.046	-17.8 mV	3.23×10^5 RLU	2.04×10^5 p/s/cm^2/sr	
